Experimental data reported in ChEMBL document CHEMBL3885861, “Open TG-GATES”.

Organism: Rattus norvegicus
Test: Open TG-GATES - Regimen: Daily Repeat
Type: toxicity, organism-based, Sprague-Dawley
Design: regimen Daily Repeat, gender Male, age 6 weeks
Conditions: in vivo, po, route gavage; for APTT / Bas / Eos / Fbg / Hb / Ht / Lym / MCH / MCV / Mono / Neu / PT / Plat / RBC / Ret / WBC / MCHC: tissue Blood; for KIDNEY_L / KIDNEY_R / KIDNEY_TOTAL: tissue Kidney; for LIVER: tissue Liver; for ALP / ALT / AST / CRE / Ca / Cl / DBIL / GLC / IP / K / LDH / Na / PL / RALB / TBIL / TC / TG / TP / gamma-GTP / BUN: tissue Plasma
[1] = 0 mg/kg, 72 h, dose level Control, time 3 day
[2] = 0 mg/kg, […], dose level Control, time 7 day
[3] = 0 mg/kg, […], dose level Control, time 14 day
[4] = 0 mg/kg, […], dose level Control, time 28 day
[5] = 100 mg/kg, 72 h, dose level Low, time 3 day
[6] = 100 mg/kg, […], dose level Low, time 7 day
[7] = 100 mg/kg, […], dose level Low, time 14 day
[8] = 100 mg/kg, […], dose level Low, time 28 day

## CCOc1ccc(NC(C)=O)cc1 [PHENACETIN]
[1]
  TERMINAL_BW: 242.4 g
  APTT: 16.7 s
  Bas: 0%
  Eos: 1%
  Fbg: 299.2 mg/dL
  Hb: 13.2 g/dL
  Ht: 39.8%
  Lym: 71.2%
  MCH: 21.1 pg
  MCV: 63.4 fL
  Mono: 2.8%
  Neu: 24.4%
  PT: 13.2 s
  Plat: 121.2 x10_4/uL
  RBC: 628.2 x10_4/ul
  Ret: 6.6%
  WBC: 85.4 x10_2/uL
  KIDNEY_L: 1 g
  KIDNEY_R: 1 g
  KIDNEY_TOTAL: 2 g
  LIVER: 11.5 g
  ALP: 2120 IU/L
  ALT: 37.8 IU/L
  AST: 67.2 IU/L
  CRE: 0.2 mg/dL
  Ca: 11.1 mg/dL
  Cl: 105.6 meq/L
  DBIL: 0.004 mg/dL
  GLC: 176.6 mg/dL
  IP: 7.2 mg/dL
  K: 4.2 meq/L
  LDH: 118.6 IU/L
  Na: 143.8 meq/L
  PL: 171 mg/dL
  RALB: 2.6 g/dL
  TBIL: 0.04 mg/dL
  TC: 85.8 mg/dL
  TG: 102.4 mg/dL
  TP: 5.7 g/dL
  gamma-GTP: 1 IU/L
[2]
  TERMINAL_BW: 272.4 g
  APTT: 17.7 s
  Bas: 0%
  Eos: 1.4%
  Fbg: 300.2 mg/dL
  Hb: 13.9 g/dL
  Ht: 41.1%
  Lym: 78.6%
  MCH: 21.2 pg
  MCHC: 33.8%
  MCV: 62.6 fL
  Mono: 2.6%
  PT: 13.5 s
  Plat: 118.8 x10_4/uL
  RBC: 656.2 x10_4/ul
  Ret: 5.4%
  WBC: 93.4 x10_2/uL
  KIDNEY_L: 1.1 g
  KIDNEY_R: 1.1 g
  KIDNEY_TOTAL: 2.3 g
  LIVER: 12.1 g
  ALP: 1453 IU/L
  ALT: 33.4 IU/L
  AST: 65.8 IU/L
  BUN: 15 mg/dL
  CRE: 0.2 mg/dL
  Ca: 10.9 mg/dL
  Cl: 105 meq/L
  DBIL: 0.004 mg/dL
  IP: 7.1 mg/dL
  K: 4.2 meq/L
  LDH: 95.8 IU/L
  PL: 167.6 mg/dL
  RALB: 2.7 g/dL
  TBIL: 0.044 mg/dL
  TC: 84.4 mg/dL
  TG: 127.8 mg/dL
  TP: 5.9 g/dL
  gamma-GTP: 1 IU/L
[3]
  TERMINAL_BW: 332.8 g
  APTT: 17.5 s
  Bas: 0%
  Eos: 1.4%
  Fbg: 320.2 mg/dL
  Hb: 14.3 g/dL
  Ht: 42.1%
  Lym: 75%
  MCH: 19.9 pg
  MCHC: 34%
  MCV: 58.6 fL
  Mono: 2.6%
  Neu: 20.6%
  PT: 13.3 s
  Plat: 117.7 x10_4/uL
  RBC: 720.4 x10_4/ul
  Ret: 4.1%
  WBC: 108.4 x10_2/uL
  KIDNEY_L: 1.3 g
  KIDNEY_R: 1.3 g
  KIDNEY_TOTAL: 2.7 g
  LIVER: 13.9 g
  ALP: 1542.8 IU/L
  ALT: 36.4 IU/L
  AST: 62.4 IU/L
  BUN: 14.6 mg/dL
  CRE: 0.2 mg/dL
  Ca: 10.8 mg/dL
  Cl: 104.6 meq/L
  DBIL: 0.024 mg/dL
  GLC: 181.4 mg/dL
  IP: 7.1 mg/dL
  K: 4.2 meq/L
  LDH: 158.6 IU/L
  Na: 143.6 meq/L
  PL: 152 mg/dL
  RALB: 2.7 g/dL
  TBIL: 0.062 mg/dL
  TC: 72.6 mg/dL
  TG: 129 mg/dL
  TP: 6 g/dL
  gamma-GTP: 1.2 IU/L
[4]
  TERMINAL_BW: 424.6 g
  APTT: 23 s
  Bas: 0%
  Eos: 1.4%
  Fbg: 276 mg/dL
  Hb: 15 g/dL
  Ht: 43.5%
  Lym: 73.2%
  MCH: 19.2 pg
  MCV: 55.6 fL
  Mono: 2.6%
  Neu: 22.2%
  PT: 14 s
  Plat: 114.1 x10_4/uL
  RBC: 782.6 x10_4/ul
  Ret: 2.6%
  WBC: 109.3 x10_2/uL
  KIDNEY_L: 1.4 g
  KIDNEY_R: 1.4 g
  KIDNEY_TOTAL: 2.7 g
  LIVER: 17 g
  ALP: 1212.8 IU/L
  ALT: 37 IU/L
  AST: 68.2 IU/L
  BUN: 17.2 mg/dL
  CRE: 0.3 mg/dL
  Ca: 10.7 mg/dL
  Cl: 104.8 meq/L
  DBIL: 0.02 mg/dL
  GLC: 185.2 mg/dL
  IP: 6 mg/dL
  K: 4 meq/L
  LDH: 76.6 IU/L
  Na: 144.8 meq/L
  PL: 149 mg/dL
  RALB: 2.9 g/dL
  TBIL: 0.048 mg/dL
  TG: 162.4 mg/dL
  TP: 6.4 g/dL
  gamma-GTP: 1 IU/L
[5]
  TERMINAL_BW: 232.8 g
  APTT: 20.2 s
  Bas: 0%
  Eos: 1.2%
  Fbg: 290.4 mg/dL
  Ht: 41.7%
  Lym: 76.8%
  MCH: 20.4 pg
  MCHC: 33%
  MCV: 61.8 fL
  Mono: 2.6%
  PT: 13.4 s
  Plat: 116.5 x10_4/uL
  RBC: 676.4 x10_4/ul
  Ret: 5.2%
  WBC: 101.2 x10_2/uL
  KIDNEY_L: 1 g
  KIDNEY_R: 1 g
  KIDNEY_TOTAL: 2.1 g
  LIVER: 10.9 g
  ALP: 1708.4 IU/L
  ALT: 40 IU/L
  AST: 70.4 IU/L
  BUN: 13 mg/dL
  CRE: 0.2 mg/dL
  Ca: 11.2 mg/dL
  Cl: 105.8 meq/L
  DBIL: 0.006 mg/dL
  GLC: 172.8 mg/dL
  IP: 6.8 mg/dL
  K: 4.2 meq/L
  LDH: 148 IU/L
  Na: 143.4 meq/L
  PL: 158.8 mg/dL
  RALB: 2.7 g/dL
  TBIL: 0.04 mg/dL
  TC: 77 mg/dL
  TG: 110.6 mg/dL
  TP: 5.8 g/dL
  gamma-GTP: 1.2 IU/L
[6]
  TERMINAL_BW: 270.6 g
  APTT: 16.8 s
  Bas: 0%
  Eos: 1.2%
  Fbg: 298.2 mg/dL
  Hb: 14.1 g/dL
  Ht: 42%
  Lym: 78.2%
  MCHC: 33.7%
  MCV: 60.3 fL
  Mono: 2%
  Neu: 18%
  PT: 13.4 s
  Plat: 123.3 x10_4/uL
  RBC: 696.4 x10_4/ul
  Ret: 5.6%
  WBC: 96.3 x10_2/uL
  KIDNEY_L: 1.1 g
  KIDNEY_R: 1.1 g
  KIDNEY_TOTAL: 2.3 g
  LIVER: 12.8 g
  ALP: 1550.8 IU/L
  BUN: 15.4 mg/dL
  CRE: 0.2 mg/dL
  Ca: 11.2 mg/dL
  Cl: 104.8 meq/L
  DBIL: 0.006 mg/dL
  GLC: 186 mg/dL
  IP: 6.9 mg/dL
  K: 4.3 meq/L
  LDH: 79.4 IU/L
  Na: 143.4 meq/L
  PL: 165.2 mg/dL
  RALB: 2.7 g/dL
  TBIL: 0.044 mg/dL
  TG: 152 mg/dL
  TP: 6 g/dL
  gamma-GTP: 1 IU/L
[7]
  TERMINAL_BW: 323.2 g
  APTT: 17.8 s
  Bas: 0.4%
  Eos: 0.8%
  Fbg: 292.4 mg/dL
  Ht: 43.4%
  Lym: 79.8%
  MCH: 19.9 pg
  MCHC: 34%
  MCV: 58.5 fL
  Mono: 2%
  Neu: 16.6%
  PT: 13.3 s
  Plat: 118.2 x10_4/uL
  RBC: 740.8 x10_4/ul
  Ret: 4.1%
  WBC: 112.5 x10_2/uL
  KIDNEY_L: 1.2 g
  KIDNEY_R: 1.2 g
  KIDNEY_TOTAL: 2.5 g
  LIVER: 13.9 g
  ALP: 1582 IU/L
  ALT: 39.4 IU/L
  AST: 66.4 IU/L
  CRE: 0.2 mg/dL
  Ca: 10.9 mg/dL
  Cl: 106 meq/L
  DBIL: 0.022 mg/dL
  GLC: 184.2 mg/dL
  IP: 6.7 mg/dL
  K: 4.2 meq/L
  LDH: 118.6 IU/L
  Na: 143.4 meq/L
  PL: 162 mg/dL
  RALB: 2.7 g/dL
  TBIL: 0.062 mg/dL
  TC: 73.8 mg/dL
  TG: 157 mg/dL
  TP: 6 g/dL
  gamma-GTP: 1.2 IU/L
[8]
  TERMINAL_BW: 411.2 g
  APTT: 18.4 s
  Bas: 0%
  Eos: 1.6%
  Fbg: 278.8 mg/dL
  Hb: 15 g/dL
  Ht: 43.8%
  MCH: 19 pg
  MCHC: 34.3%
  MCV: 55.3 fL
  Mono: 2.4%
  Plat: 122.4 x10_4/uL
  RBC: 792.8 x10_4/ul
  Ret: 3%
  WBC: 92.4 x10_2/uL
  KIDNEY_L: 1.4 g
  KIDNEY_R: 1.4 g
  KIDNEY_TOTAL: 2.8 g
  LIVER: 16.4 g
  ALP: 1231.2 IU/L
  ALT: 35.8 IU/L
  AST: 60.8 IU/L
  BUN: 15.6 mg/dL
  CRE: 0.3 mg/dL
  Ca: 10.8 mg/dL
  Cl: 105.6 meq/L
  DBIL: 0.02 mg/dL
  GLC: 191.8 mg/dL
  IP: 6.1 mg/dL
  K: 3.7 meq/L
  LDH: 66.6 IU/L
  Na: 145.2 meq/L
  PL: 148 mg/dL
  RALB: 2.9 g/dL
  TBIL: 0.052 mg/dL
  TC: 63.8 mg/dL
  TG: 156 mg/dL
